Data on 24 compounds can be found in patent EP2776398B1, “SUBSTITUTED PYRAZOLYL-BASED UREA DERIVATIVES AS VANILLOID RECEPTOR LIGANDS” (Medifron DBT Inc., priority 2011, dated 2013).

T1 sequence (Q8NER1 whole entry): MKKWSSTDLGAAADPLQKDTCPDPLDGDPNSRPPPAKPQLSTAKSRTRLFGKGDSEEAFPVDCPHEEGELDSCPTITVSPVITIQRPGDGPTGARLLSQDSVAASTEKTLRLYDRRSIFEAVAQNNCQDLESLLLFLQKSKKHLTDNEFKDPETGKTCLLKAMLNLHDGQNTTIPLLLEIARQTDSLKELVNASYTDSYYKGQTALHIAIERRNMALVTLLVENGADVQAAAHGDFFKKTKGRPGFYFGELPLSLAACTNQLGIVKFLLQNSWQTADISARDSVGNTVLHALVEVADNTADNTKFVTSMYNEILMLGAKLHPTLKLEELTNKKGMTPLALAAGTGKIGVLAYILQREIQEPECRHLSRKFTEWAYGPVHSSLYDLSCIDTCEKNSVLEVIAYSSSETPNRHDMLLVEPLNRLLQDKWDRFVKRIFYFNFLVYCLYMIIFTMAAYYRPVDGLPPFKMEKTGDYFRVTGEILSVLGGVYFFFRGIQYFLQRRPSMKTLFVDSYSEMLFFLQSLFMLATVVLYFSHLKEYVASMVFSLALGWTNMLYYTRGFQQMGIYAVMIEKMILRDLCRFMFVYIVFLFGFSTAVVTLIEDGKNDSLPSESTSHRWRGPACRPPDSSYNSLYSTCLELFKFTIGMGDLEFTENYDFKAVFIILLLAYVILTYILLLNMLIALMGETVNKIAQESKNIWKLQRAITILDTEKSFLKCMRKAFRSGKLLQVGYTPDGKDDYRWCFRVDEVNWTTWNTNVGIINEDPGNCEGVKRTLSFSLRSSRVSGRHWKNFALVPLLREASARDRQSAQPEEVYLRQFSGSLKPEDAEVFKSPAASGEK

One assay addresses T1, vanilloid receptor 1 (VR1/TRPV1 receptor) (Homo sapiens, UniProt Q8NER1).
T1 construct: expressed in transfected cells; host or cells: CHO K1 cells (ECACC), stably transfected
As to the kind of experiment: Functional testing on vanilloid receptor 1: FLIPR Ca2+ influx assay against capsaicin (Cap) in transfected CHO K1 cells (pharmacological method II). As to Ki: 100 nM capsaicin. It is filed as cell-based. More on the design: key to (f) Ki (human being) [nM] Cap: agonist classification: AG = agonist. The following applies: @ 1µM; human VR1 in CHO K1 cells; capsaicin; relative to maximum inhibition with 10 µM capsazepine; read-out: inhibition (as a percentage), printed in column (f) Ki (human being) [nM] Cap.
Description: […]
By inhibition is commonly meant the drop in the measured response relative to a control, in per cent. As for `O=C(NCc1cc(C(F)(F)F)nn1-c1cccc(F)c1)Nc1ccc(OCC(O)CO)cc1` (stereo not drawn) [A26, 1-[4-(2,3-Dihydroxy-propoxy)-phenyl]-3-[[2-(3-fluorophenyl)-5-(trifluoromethyl)-2H-pyrazol-3-yl]-methyl]-urea], the inhibition at 1 µM was determined as 34%.

Staying with this assay, now noted: @ 5µM; human VR1 in CHO K1 cells; capsaicin; relative to maximum inhibition with 10 µM capsazepine; read-out: inhibition (as a percentage), printed in column (f) Ki (human being) [nM] Cap.
Take `O=C(NCc1cc(C(F)(F)F)nn1-c1cccc(Cl)c1)Nc1ccc(C(O)(CO)CO)cc1` [A158, 1-[[2-(3-Chlorophenyl)-5-(trifluoromethyl)-2H-pyrazol-3-yl]-methyl]-3-[4-[1,2-dihydroxy-1-(hydroxymethyl)-ethyl]-phenyl]-urea]: the inhibition at 5 µM was determined as 13%.

On to `CC(C)(C)c1cc(CNC(=O)Nc2ccc(C(CO)CO)c(F)c2)n(-c2cccc(Cl)c2)n1` [A152, 1-[[5-tert-Butyl-2-(3-chlorophenyl)-2H-pyrazol-3-yl]-methyl]-3-[3-fluoro-4-[2-hydroxy-1-(hydroxymethyl)-ethyl]-phenyl]-urea], for which the inhibition at 5 µM turned out to be 39%.

Still in this assay, the particulars now being: human VR1 in CHO K1 cells; AG printed instead of a Ki.
On to `CC(C)(C)c1cc(CNC(=O)Nc2ccc(OCC(O)CO)c(F)c2)n(-c2cccc(Cl)c2)n1` (stereo not drawn) [A24, 1-[[5-tert-Butyl-2-(3-chlorophenyl)-2H-pyrazol-3-yl]-methyl]-3-[4-(2,3-dihydroxy-propoxy)-3-fluoro-phenyl]-urea], for which the “(f) Ki (human being) [nM] Cap: agonist classification” value is recorded as “AG”.

As for `CC(C(=O)NCc1cc(C(C)(C)C)nn1-c1cccc(Cl)c1)c1ccc(CO)c(F)c1` (stereo not drawn) [A32, N-[[5-tert-Butyl-2-(3-chlorophenyl)-2H-pyrazol-3-yl]-methyl]-2-[3-fluoro-4-(hydroxymethyl)-phenyl]-propionamide], the “(f) Ki (human being) [nM] Cap: agonist classification” value was “AG”.

Staying with this assay, now noted: read-out: (f) Ki (human being) [nM] Cap.
A word on the Ki: it is a dissociation constant, usually derived from enzyme kinetics or from competition with a known ligand. As for `Cc1ccc(-n2nc(C(F)(F)F)cc2CNC(=O)Nc2ccc(CO)c(F)c2)cc1` [A71, 1-[3-Fluoro-4-(hydroxymethyl)-phenyl]-3-[[2-(p-tolyl)-5-(trifluoromethyl)-2H-pyrazol-3-yl]-methyl]-urea], the Ki was found to be 42 nM.

`COc1ccc(Cl)cc1-n1nc(C(F)(F)F)cc1CNC(=O)Nc1ccc(CO)c(F)c1` [A91, 1-[[2-(5-Chloro-2-methoxy-phenyl)-5-(trifluoromethyl)-2H-pyrazol-3-yl]-methyl]-3-[3-fluoro-4-(hydroxymethyl)-phenyl]-urea]: the Ki was 51 nM.

Take `CC(C)(C)c1cc(CNC(=O)Nc2ccc(C3(O)CC3)c(F)c2)n(-c2cccc(Cl)c2)n1` [A105, 1-[[5-tert-Butyl-2-(3-chlorophenyl)-2H-pyrazol-3-yl]-methyl]-3-[3-fluoro-4-(1-hydroxy-cyclopropyl)-phenyl]-urea]: the Ki came out at 19 nM.

As for `CC(C(=O)NCc1cc(C(F)(F)F)nn1-c1ccc(F)cc1)c1ccc(CO)c(F)c1` (stereo not drawn) [A46, 2-[3-Fluoro-4-(hydroxymethyl)-phenyl]-N-[[2-(4-fluorophenyl)-5-(trifluoromethyl)-2H-pyrazol-3-yl]-methyl]-propionamide], the inhibition constant (Ki) was determined as 46 nM.

As for `COc1c(F)cc(CC(=O)NCc2cc(C(C)(C)C)nn2-c2cccc(Cl)c2)cc1F` [A1, N-[[5-tert-Butyl-2-(3-chlorophenyl)-2H-pyrazol-3-yl]-methyl]-2-(3,5-difluoro-4-methoxy-phenyl)-acetamide], the inhibition constant Ki turned out to be 12 nM.

Turning to `Cc1ccc(C)c(-n2nc(C(F)(F)F)cc2CNC(=O)Nc2ccc(CO)c(F)c2)c1` [A74, 1-[[2-(2,5-Dimethyl-phenyl)-5-(trifluoromethyl)-2H-pyrazol-3-yl]-methyl]-3-[3-fluoro-4-(hydroxymethyl)-phenyl]-urea], the Ki was determined as 44 nM.

Consider `CC(C)(C)c1cc(CNC(=O)Nc2ccc(C3(O)COC3)c(F)c2)n(-c2cccc(Cl)c2)n1` [A109, 1-[[5-tert-Butyl-2-(3-chlorophenyl)-2H-pyrazol-3-yl]-methyl]-3-[3-fluoro-4-(3-hydroxy-oxetan-3-yl)-phenyl]-urea], for which the Ki was determined as 43 nM.

`CC(C(=O)NCc1cc(C(F)(F)F)nn1-c1cccc(F)c1)c1ccc(COCCO)c(F)c1` (stereo not drawn) [A122, 2-[3-Fluoro-4-(2-hydroxy-ethoxy-methyl)-phenyl]-N-[[2-(3-fluorophenyl)-5-(trifluoromethyl)-2H-pyrazol-3-yl]-methyl]-propionamide]: the inhibitory constant (Ki) was 45 nM.

With `CC(C)(C)c1cc(CNC(=O)Nc2ccc(CO)c(F)c2)n(-c2cccc(Cl)c2)n1` [A55, 1-[[5-tert-Butyl-2-(3-chlorophenyl)-2H-pyrazol-3-yl]-methyl]-3-[3-fluoro-4-(hydroxymethyl)-phenyl]-urea], the Ki amounted to 3 nM.

As for `COc1cc(C(C)C(=O)NCc2cc(C(F)(F)F)nn2-c2cccc(Cl)c2)ccc1CO` (stereo not drawn) [A50, N-[[2-(3-Chlorophenyl)-5-(trifluoromethyl)-2H-pyrazol-3-yl]-methyl]-2-[4-(hydroxymethyl)-3-methoxy-phenyl]-propionamide], the Ki came out at 1 nM.

As for `Cc1ccccc1-n1nc(C(F)(F)F)cc1CNC(=O)Nc1ccc(CO)c(F)c1` [A69, 1-[3-Fluoro-4-(hydroxymethyl)-phenyl]-3-[[2-(o-tolyl)-5-(trifluoromethyl)-2H-pyrazol-3-yl]-methyl]-urea], the Ki was 45 nM.

For `O=C(NCc1cc(C(F)(F)F)nn1-c1cccc(C(F)F)c1)Nc1ccc(CO)c(F)c1` [A83, 1-[[2-[3-(Difluoro-methyl)-phenyl]-5-(trifluoromethyl)-2H-pyrazol-3-yl]-methyl]-3-[3-fluoro-4-(hydroxymethyl)-phenyl]-urea], the Ki was determined as 12 nM.

Consider `CC(C)(C)c1cc(CNC(=O)Nc2ccc(CO)c(F)c2)n(-c2cccc(F)c2)n1` [A54, 1-[[5-tert-Butyl-2-(3-fluorophenyl)-2H-pyrazol-3-yl]-methyl]-3-[3-fluoro-4-(hydroxymethyl)-phenyl]-urea], for which the Ki is 6 nM.

In the case of `CC(C(=O)NCc1cc(C(F)(F)F)nn1-c1cccc(Cl)c1)c1ccc(C(O)CO)cc1` (stereo not drawn) [A146, N-[[2-(3-Chlorophenyl)-5-(trifluoromethyl)-2H-pyrazol-3-yl]-methyl]-2-[4-(1,2-dihydroxy-ethyl)-phenyl]-propionamide], the Ki turned out to be 13 nM.

Turning to `CCOc1ccc(C)cc1-n1nc(C(F)(F)F)cc1CNC(=O)Nc1ccc(CO)c(F)c1` [A88, 1-[[2-(2-Ethoxy-5-methyl-phenyl)-5-(trifluoromethyl)-2H-pyrazol-3-yl]-methyl]-3-[3-fluoro-4-(hydroxymethyl)-phenyl]-urea], the Ki was 86 nM.

Turning to `COc1c(F)cc(C(C)C(=O)NCc2cc(C3CC3)nn2-c2cccc(Cl)c2)cc1F` (stereo not drawn) [A3, N-[[2-(3-Chlorophenyl)-5-cyclopropyl-2H-pyrazol-3-yl]-methyl]-2-(3,5-difluoro-4-methoxy-phenyl)-propionamide], the Ki is 6 nM.

`CC(C)(C)c1cc(CNC(=O)Nc2ccc(C(C)(CO)CO)c(F)c2)n(-c2cccc(Cl)c2)n1` [A156, 1-[[5-tert-Butyl-2-(3-chlorophenyl)-2H-pyrazol-3-yl]-methyl]-3-[3-fluoro-4-[2-hydroxy-1-(hydroxymethyl)-1-methyl-ethyl]-phenyl]-urea]: the inhibitory constant (Ki) was determined as 84 nM.

For `Cc1cccc(-n2nc(C(F)(F)F)cc2CNC(=O)Nc2ccc(CO)c(F)c2)c1` [A70, 1-[3-Fluoro-4-(hydroxymethyl)-phenyl]-3-[[2-(m-tolyl)-5-(trifluoromethyl)-2H-pyrazol-3-yl]-methyl]-urea], the Ki is 9 nM.

Consider `CCOc1cc(C)cc(-n2nc(C(F)(F)F)cc2CNC(=O)Nc2ccc(CO)c(F)c2)c1` [A93, 1-[[2-(3-Ethoxy-5-methyl-phenyl)-5-(trifluoromethyl)-2H-pyrazol-3-yl]-methyl]-3-[3-fluoro-4-(hydroxymethyl)-phenyl]-urea], for which the inhibition constant Ki was 18 nM.
